Experimental data as given in paper PMC11822212, “High-throughput screening identifies Aurora kinase B as a critical therapeutic target for Merkel cell carcinoma” (Nature Communications, 2025).
“And” between values parts separate entries of the source, which are not always exact repeats. Equal entries are not always repeated. Where two headings read alike, the source gives them in different places.

How the values were obtained:
Assay in all cases: qHTS cell viability (CellTiter-Glo, 72 h; primary and follow-up small molecule screen)
Assay type in all cases: cell-based, human
MCC13 cells (VN-MCC) = system: MCC13 cells (VN-MCC)
MCC26 cells (VN-MCC) = system: MCC26 cells (VN-MCC)
UISO cells (VN-MCC) = system: UISO cells (VN-MCC)
WAGA cells (VP-MCC) = system: WAGA cells (VP-MCC)
MKL-1 cells (VP-MCC) = system: MKL-1 cells (VP-MCC)
MKL-2 cells (VP-MCC) = system: MKL-2 cells (VP-MCC)

Compound | Area under the dose-response curve (AUC) MCC13 Replicate 1 (MCC13 cells (VN-MCC)) | Area under the dose-response curve (AUC) MCC13 Replicate 2 (MCC13 cells (VN-MCC)) | Area under the dose-response curve (AUC) MCC13 Replicate 3 (MCC13 cells (VN-MCC)) | Area under the dose-response curve (AUC) MCC26 Replicate 1 (MCC26 cells (VN-MCC)) | Area under the dose-response curve (AUC) MCC26 Replicate 2 (MCC26 cells (VN-MCC)) | Area under the dose-response curve (AUC) MCC26 Replicate 3 (MCC26 cells (VN-MCC)) | Area under the dose-response curve (AUC) UISO Replicate 1 (UISO cells (VN-MCC)) | Area under the dose-response curve (AUC) UISO Replicate 2 (UISO cells (VN-MCC)) | Area under the dose-response curve (AUC) UISO Replicate 3 (UISO cells (VN-MCC)) | Area under the dose-response curve (AUC) WAGA Replicate 1 (WAGA cells (VP-MCC)) | Area under the dose-response curve (AUC) WAGA Replicate 2 (WAGA cells (VP-MCC)) | Area under the dose-response curve (AUC) WAGA Replicate 3 (WAGA cells (VP-MCC)) | Area under the dose-response curve (AUC) MKL-1 Replicate 1 (MKL-1 cells (VP-MCC)) | Area under the dose-response curve (AUC) MKL-1 Replicate 2 (MKL-1 cells (VP-MCC)) | Area under the dose-response curve (AUC) MKL-1 Replicate 3 (MKL-1 cells (VP-MCC)) | Area under the dose-response curve (AUC) MKL-2 Replicate 1 (MKL-2 cells (VP-MCC)) | Area under the dose-response curve (AUC) MKL-2 Replicate 2 (MKL-2 cells (VP-MCC)) | Area under the dose-response curve (AUC) MKL-2 Replicate 3 (MKL-2 cells (VP-MCC)) | other results
COc1cc(O)c2c(c1)oc(=O)c1c3cc(O)c(O)cc3oc21 [WEDELOLACTONE] | 452.7 | 445.8 | 440.3 | 436.4 | 432.2 | 441.9 | 275.6 | 271.0 | 228.5 | 442.4 | 419.0 | 421.6 | 490.5 | 454.4 | 448.6 | 426.5 | 409.5 | 433.4 | 
Cc1ccc(NC(=O)c2cccc(N(C)C)c2)cc1NC(=O)c1ccc(O)cc1 [ZM-336372] |  |  |  |  |  |  |  |  |  |  |  |  |  |  |  |  |  |  | Area under the dose-response curve (AUC) MCC13 Replicate 1 (MCC13 cells (VN-MCC); follow-up screen, MCC13, replicate 1): 498.2; Area under the dose-response curve (AUC) MCC13 Replicate 2 (MCC13 cells (VN-MCC); follow-up screen, MCC13, replicate 2): 493.5; Area under the dose-response curve (AUC) MCC13 Replicate 3 (MCC13 cells (VN-MCC); follow-up screen, MCC13, replicate 3): 506.1; Area under the dose-response curve (AUC) MCC26 Replicate 1 (MCC26 cells (VN-MCC); follow-up screen, MCC26, replicate 1): 438.1; Area under the dose-response curve (AUC) MCC26 Replicate 2 (MCC26 cells (VN-MCC); follow-up screen, MCC26, replicate 2): 425.8; Area under the dose-response curve (AUC) MCC26 Replicate 3 (MCC26 cells (VN-MCC); follow-up screen, MCC26, replicate 3): 478.4; Area under the dose-response curve (AUC) UISO Replicate 1 (UISO cells (VN-MCC); follow-up screen, UISO, replicate 1): 448.6; Area under the dose-response curve (AUC) UISO Replicate 2 (UISO cells (VN-MCC); follow-up screen, UISO, replicate 2): 464.6; Area under the dose-response curve (AUC) UISO Replicate 3 (UISO cells (VN-MCC); follow-up screen, UISO, replicate 3): 456.5; Area under the dose-response curve (AUC) WAGA Replicate 1 (WAGA cells (VP-MCC); follow-up screen, WAGA, replicate 1): 500.4; Area under the dose-response curve (AUC) WAGA Replicate 2 (WAGA cells (VP-MCC); follow-up screen, WAGA, replicate 2): 604.1; Area under the dose-response curve (AUC) WAGA Replicate 3 (WAGA cells (VP-MCC); follow-up screen, WAGA, replicate 3): 537.5; Area under the dose-response curve (AUC) MKL-1 Replicate 1 (MKL-1 cells (VP-MCC); follow-up screen, MKL-1, replicate 1): 480.0; Area under the dose-response curve (AUC) MKL-1 Replicate 2 (MKL-1 cells (VP-MCC); follow-up screen, MKL-1, replicate 2): 490.6; Area under the dose-response curve (AUC) MKL-1 Replicate 3 (MKL-1 cells (VP-MCC); follow-up screen, MKL-1, replicate 3): 522.7; Area under the dose-response curve (AUC) MKL-2 Replicate 1 (MKL-2 cells (VP-MCC); follow-up screen, MKL-2, replicate 1): 501.8; Area under the dose-response curve (AUC) MKL-2 Replicate 2 (MKL-2 cells (VP-MCC); follow-up screen, MKL-2, replicate 2): 535.1; Area under the dose-response curve (AUC) MKL-2 Replicate 3 (MKL-2 cells (VP-MCC); follow-up screen, MKL-2, replicate 3): 493.2
CCCC[C@@H](C)/C=C(C)/C=C(\C)C(=O)NC1=C[C@@](O)(/C=C/C=C/C=C/C(=O)NC2=C(O)CCC2=O)[C@@H]2O[C@@H]2C1=O [manumycin A] | 464.3 | 477.8 | 420.7 | 416.4 | 409.7 | 443.4 | 429.0 | 434.7 | 408.1 | 424.6 | 379.9 | 418.7 | 418.4 | 432.7 | 426.4 | 385.8 | 395.8 | 389.6 | 
AZD-4547 |  |  |  |  |  |  |  |  |  |  |  |  |  |  |  |  |  |  | Area under the dose-response curve (AUC) (MCC13 cells (VN-MCC)): 385.3 and 349.5 and 390.1; Area under the dose-response curve (AUC) (MCC26 cells (VN-MCC)): 311.4 and 288.0 and 307.4; Area under the dose-response curve (AUC) (UISO cells (VN-MCC)): 337.7 and 347.0 and 331.2; Area under the dose-response curve (AUC) (WAGA cells (VP-MCC)): 425.9 and 443.6 and 367.2; Area under the dose-response curve (AUC) (MKL-1 cells (VP-MCC)): 362.7 and 390.5 and 360.0; Area under the dose-response curve (AUC) (MKL-2 cells (VP-MCC)): 380.8 and 390.1 and 354.8
Oxamflatin |  |  |  |  |  |  |  |  |  |  |  |  |  |  |  |  |  |  | Area under the dose-response curve (AUC) (MCC13 cells (VN-MCC)): 440.6 and 393.8 and 429.1; Area under the dose-response curve (AUC) (MCC26 cells (VN-MCC)): 406.5 and 378.8 and 411.0; Area under the dose-response curve (AUC) (UISO cells (VN-MCC)): 391.0 and 406.3 and 400.1; Area under the dose-response curve (AUC) (WAGA cells (VP-MCC)): 338.5 and 313.0 and 330.7; Area under the dose-response curve (AUC) (MKL-1 cells (VP-MCC)): 365.5 and 347.7 and 381.7; Area under the dose-response curve (AUC) (MKL-2 cells (VP-MCC)): 378.9 and 303.8 and 268.6
Phenylmercuric acetate | 405.8 | 369.3 | 386.0 | 356.5 | 359.6 | 374.3 | 343.0 | 369.6 | 334.3 | 330.3 | 317.4 | 331.4 | 287.3 | 286.9 | 280.4 | 295.2 | 271.6 | 292.7 | 
SP-600125 | 457.8 | 483.0 | 492.5 | 435.5 | 426.6 | 458.4 | 425.2 | 449.0 | 462.0 | 479.2 | 486.5 | 468.4 | 472.9 | 491.9 | 491.6 | 447.3 | 464.7 | 498.4 | 
